# Laboratory results taken from patent US20110190365A1, “Insecticidal 4-phenyl-1H-pyrazoles” (Bayer Crop Science AG, priority 2008, published 2011).
# Test: log P by HPLC on a reversed-phase column (C18), EEC Directive 79/831 Annex V.A8
# Assay type: physicochemical
# Settings: HCOOH
# Procedure: The stated log P values were determined in accordance with EEC Directive 79/831 Annex V.A8 by HPLC (High Performance Liquid Chromatography) using a reversed-phase column (C18).
row,Compound,log P (HCOOH)
1,Cc1cc(-n2nc(C(F)(F)F)c(-c3cc(Cl)cc(Cl)c3)c2N)ccc1C(=O)NCCNC(=O)c1ccccn1 [I-A-Q2-036],I-A-Q2-036: log P (HCOOH): 3.68
2,Nc1c(-c2cc(Cl)cc(Cl)c2)c(C(F)(F)F)nn1-c1ccc(C(=O)NCc2ccccn2)c(C(F)(F)F)c1 [I-A-Q2-386],I-A-Q2-386: log P (HCOOH): 3.77
3,Cc1cc(-n2nc(C(F)(F)F)c(-c3cc(Cl)cc(Cl)c3)c2N)ccc1C(=O)NC(c1cccc(C(F)(F)F)c1)C(F)(F)F (stereo not drawn) [I-A-Q2-257],I-A-Q2-257: log P (HCOOH): 5.22
4,Cc1cc(-n2nc(C(F)(F)Cl)c(-c3cc(Cl)cc(C(F)(F)F)c3)c2N)ccc1C(=O)NCc1ccccn1 [I-A-Q2-364],I-A-Q2-364: log P (HCOOH): 3.53
5,COC(=O)CNC(=O)c1ccc(-n2nc(C(F)(F)F)c(-c3cc(Cl)cc(Cl)c3)c2N)cc1C [I-A-Q2-030],I-A-Q2-030: log P (HCOOH): 3.68
6,Nc1c(-c2cccc(Cl)c2)c(C(F)(F)F)nn1-c1ccc(C(=O)NC2CCCCC2)cc1 [I-A-Q2-093],I-A-Q2-093: log P (HCOOH): 4.00
7,Cc1cc(-n2nc(C(F)(F)F)c(-c3cc(Cl)cc(Cl)c3)c2N)ccc1C(=O)NCC(C)C [I-A-Q2-227],I-A-Q2-227: log P (HCOOH): 4.40
8,Cc1cc(-n2nc(C(F)F)c(-c3ccc(F)cc3F)c2N)ccc1C(=O)NCc1ccccn1 [I-A-Q2-361],I-A-Q2-361: log P (HCOOH): 1.91
9,CC(C)NC(=O)c1ccc(-n2nc(C(F)(F)F)c(-c3cccc(F)c3)c2N)cc1 [I-A-Q2-181],I-A-Q2-181: log P (HCOOH): 2.98
10,Cc1cc(-n2nc(C(F)(F)F)c(-c3ccc(Cl)cc3Cl)c2N)ccc1C(=O)NCc1ncccn1 [I-A-Q2-411],I-A-Q2-411: log P (HCOOH): 3.17
11,Cc1cc(-n2nc(C(F)(F)F)c(-c3ccc(Cl)c(F)c3)c2N)ccc1C(=O)NCc1ccccn1 [I-A-Q2-353],I-A-Q2-353: log P (HCOOH): 2.84
12,Nc1c(-c2ccc(Cl)c(F)c2)c(C(F)(F)F)nn1-c1ccc(C(=O)NCc2ccccn2)cc1 [I-A-Q2-171],I-A-Q2-171: log P (HCOOH): 2.53
13,Cc1cc(-n2nc(C(F)(F)F)c(-c3cc(Cl)c4c(c3)OCO4)c2N)ccc1C(=O)NCC(F)(F)C(F)F [I-A-Q2-293],I-A-Q2-293: log P (HCOOH): 3.11
14,Cc1cc(-n2nc(C(F)(F)F)c(-c3ccc(Cl)cc3)c2N)ccc1C(=O)NCc1ccccn1 [I-A-Q2-345],I-A-Q2-345: log P (HCOOH): 2.69
15,Nc1c(-c2ccc(Cl)cc2)c(C(F)(F)F)nn1-c1ccc(C(=O)NCC(F)F)cc1 [I-A-Q2-164],I-A-Q2-164: log P (HCOOH): 3.27
16,Cc1cccc(CNC(=O)c2ccc(-n3nc(C(F)(F)F)c(-c4cc(Cl)cc(Cl)c4)c3N)cc2C)n1 [I-A-Q2-042],I-A-Q2-042: log P (HCOOH): 2.93
17,Cc1cc(-n2nc(C(F)(F)F)c(-c3cc(Cl)cc(Cl)c3)c2N)ccc1C(=O)NCCN1CCOCC1 [I-A-Q2-264],I-A-Q2-264: log P (HCOOH): 1.99
18,COC(=O)c1ccc(-n2nc(C(F)(F)F)c(I)c2N)cc1C [XI-A-083],XI-A-083: log P (HCOOH): 3.48
19,Cc1cc(-n2nc(C(F)(F)F)c(-c3cccc(F)c3)c2N)ccc1C(=O)NCc1ccccn1 [I-A-Q2-354],I-A-Q2-354: log P (HCOOH): 2.31
20,Cc1cc(-n2nc(C(F)(F)F)c(-c3cc(Cl)cc(Cl)c3)c2N)ccc1C(=O)N(C)C(C)c1ccccn1 (stereo not drawn) [I-A-Q2-210],I-A-Q2-210: log P (HCOOH): 4.28
21,Cc1cc(-n2nc(C(F)(F)F)c(-c3cccc(Br)c3)c2N)ccc1C(=O)NCc1ccccn1 [I-A-Q2-357],I-A-Q2-357: log P (HCOOH): 2.72
22,Cc1cc(-n2nc(C)c(-c3ccc(Cl)cc3)c2N)ccc1C(=O)NCC(F)(F)C(F)F [I-A-Q2-325],I-A-Q2-325: log P (HCOOH): 2.85

row,Compound,log P (HCOOH)
1,Cc1cnc2c(c1)CCCC2NC(=O)c1ccc(-n2nc(C(F)(F)F)c(-c3cc(Cl)cc(Cl)c3)c2N)cc1C (stereo not drawn) [I-A-Q2-051],I-A-Q2-051: log P (HCOOH): 3.06
2,CCNC(=O)c1ccc(-n2nc(C(F)(F)F)c(-c3cc(Cl)cc(Cl)c3)c2N)cc1C [I-A-Q2-270],I-A-Q2-270: log P (HCOOH): 3.84
3,Cc1cc(-n2nc(C(F)(F)F)c(-c3cc(Cl)cc(Cl)c3)c2N)ccc1C(=O)NC(C)c1ccncc1 (stereo not drawn) [I-A-Q2-234],I-A-Q2-234: log P (HCOOH): 2.38
4,CNC(=O)c1ccc(-n2nc(C(C)C)c(-c3ccc(Cl)cc3)c2N)cc1 [I-A-Q2-074],I-A-Q2-074: log P (HCOOH): 2.76
5,Cc1cc(-n2nc(C(F)(F)F)c(-c3ccccc3C)c2N)ccc1C(=O)NCc1ccccn1 [I-A-Q2-359],I-A-Q2-359: log P (HCOOH): 2.34
6,Cc1cc(-n2nc(C(F)(F)F)c(-c3cc(Cl)cc(Cl)c3)c2N)ccc1C(=O)NCC[S+](C)[O-] (stereo not drawn) [I-A-Q2-273],I-A-Q2-273: log P (HCOOH): 2.98
7,"Cc1cc(-n2nc(C(F)(F)F)c(-c3cc(Cl)cc(Cl)c3)c2[S+](C)[O-])ccc1C(=O)NCc1ccccn1 (stereo not drawn) [I-A-Q2-063, 4-[4-(3,5-Dichlorophenyl)-5-methanesulphinyl-3-trifluoromethylpyrazol-1-yl]-2-methyl-N-pyridin-2-ylmethylbenzamide]",I-A-Q2-063: log P (HCOOH): 3.11
8,COc1cc(-c2c(C(F)(F)F)nn(-c3ccc(C(=O)NCC(F)(F)C(F)F)c(C)c3)c2N)cc(Cl)c1OC [I-A-Q2-292],I-A-Q2-292: log P (HCOOH): 3.53
9,CCOC(=O)N1CCC(NC(=O)c2ccc(-n3nc(C(F)(F)F)c(-c4cc(Cl)cc(Cl)c4)c3N)cc2C)CC1 [I-A-Q2-204],I-A-Q2-204: log P (HCOOH): 4.22
10,Cc1cc(-n2nc(C(F)(F)F)c(-c3cc(Cl)cc(Cl)c3)c2N)ccc1C(=O)NC(C)Cc1ccccn1 (stereo not drawn) [I-A-Q2-065],I-A-Q2-065: log P (HCOOH): 2.72
11,Cc1cc(-n2nc(C(F)(F)F)c(-c3c(F)cc(F)cc3F)c2N)ccc1C(=O)NCC(F)(F)C(F)F [I-A-Q2-307],I-A-Q2-307: log P (HCOOH): 3.27
12,CCCNC(=O)c1ccc(-n2nc(C(F)(F)F)c(-c3cc(Cl)cc(Cl)c3)c2N)cc1C [I-A-Q2-202],I-A-Q2-202: log P (HCOOH): 4.22
13,Cc1cc(-n2nc(C(F)(F)F)c(-c3cccc(Br)c3)c2N)ccc1C(=O)NCC(F)(F)C(F)F [I-A-Q2-314],I-A-Q2-314: log P (HCOOH): 3.65
14,Cc1cc(-n2nc(C(F)(F)F)c(-c3ccccc3Br)c2N)ccc1C(=O)NCC(F)(F)C(F)F [I-A-Q2-423],I-A-Q2-423: log P (HCOOH): 3.55
15,Cc1cc(-n2nc(C(F)(F)F)c(-c3cc(Cl)cc(Cl)c3)c2N)ccc1C(=O)NCCc1ccccc1 [I-A-Q2-050],I-A-Q2-050: log P (HCOOH): 4.64
16,COc1cccc(C(F)(F)c2nn(-c3ccc(C(=O)NCC(F)(F)C(F)F)c(C)c3)c(N)c2-c2cc(Cl)cc(C(F)(F)F)c2)c1 [I-A-Q2-288],I-A-Q2-288: log P (HCOOH): 4.40
17,Cc1cc(-n2nc(C(F)(F)F)c(-c3cc(F)c(F)c(F)c3)c2N)ccc1C(=O)NCc1ccccn1 [I-A-Q2-358],I-A-Q2-358: log P (HCOOH): 2.80
18,Cc1cc(-n2nc(C(F)(F)Oc3ccccc3)c(-c3cc(Cl)cc(C(F)(F)F)c3)c2N)ccc1C(=O)NCC(F)(F)C(F)F [I-A-Q2-299],I-A-Q2-299: log P (HCOOH): 4.51
19,CCC(NC(=O)c1ccc(-n2nc(C(F)(F)F)c(-c3cc(Cl)cc(Cl)c3)c2N)cc1)C(F)(F)F (stereo not drawn) [I-A-Q2-067],I-A-Q2-067: log P (HCOOH): 4.65
20,Cc1cc(-n2nc(C(F)(F)F)c(I)c2N)ccc1C(=O)NCc1ccccn1 [XI-A-095],XI-A-095: log P (HCOOH): 2.03
21,Cc1cc(-n2nc(C)c(-c3ccc(F)cc3)c2N)ccc1C(=O)NCC(F)(F)C(F)F [I-A-Q2-326],I-A-Q2-326: log P (HCOOH): 2.51

# Same assay, conditions: HCOOH; Table 4, compounds of formula I-A-Q4
row,Compound,log P (HCOOH)
1,Nc1c(-c2cccc(Br)c2)c(C(F)(F)F)nn1-c1ccc(Cl)cn1 [I-A-Q4-052],I-A-Q4-052: log P (HCOOH): 5.02
2,Nc1c(-c2cc(Cl)cc(Cl)c2)c(C(F)(F)F)nn1-c1ccc(C(=O)O)cc1 [I-A-Q4-087],I-A-Q4-087: log P (HCOOH): 3.79
3,Cc1ccccc1-c1c(C(F)(F)F)nn(-c2ccc(Cl)cn2)c1N [I-A-Q4-054],I-A-Q4-054: log P (HCOOH): 4.64
4,CC(C)c1nn(-c2ccc(Cl)cn2)c(N)c1-c1ccc(Cl)cc1 [I-A-Q4-027],I-A-Q4-027: log P (HCOOH): 5.73
5,Cc1cc(C)cc(-c2c(C(F)(F)F)nn(-c3ccc(C(=O)O)cc3)c2N)c1 [I-A-Q4-090],I-A-Q4-090: log P (HCOOH): 3.42
6,Cc1nn(-c2ccc(Cl)cn2)c(N)c1-c1ccc(F)cc1 [I-A-Q4-038],I-A-Q4-038: log P (HCOOH): 3.84
7,CN(C)C=Nc1c(-c2ccc(Cl)cc2)c(C(F)(F)F)nn1-c1ncc(Cl)cn1 [I-A-Q4-015],I-A-Q4-015: log P (HCOOH): 3.47
8,Nc1c(-c2cc(Cl)cc(Cl)c2)c(C(F)(F)F)nn1-c1ccc(C(=O)O)cn1 [I-A-Q4-064],I-A-Q4-064: log P (HCOOH): 4.23
9,COc1ccc(-c2c(C)nn(-c3ccc(Cl)cn3)c2N)cc1 [I-A-Q4-061],I-A-Q4-061: log P (HCOOH): 3.58
10,Nc1c(-c2cc(Cl)cc(Cl)c2)c(C(F)(F)F)nn1-c1ccc(S(=O)(=O)NC2CC2)c(Br)c1 [I-A-Q4-111],I-A-Q4-111: log P (HCOOH): 4.77
11,Cc1nn(-c2ccc(Cl)cn2)c(N)c1-c1ccccc1Cl [I-A-Q4-032],I-A-Q4-032: log P (HCOOH): 3.89

# Same assay, conditions: HPLC, reversed-phase C18, mobile phase with formic acid
row,Compound,log P (HCOOH)
1,N#Cc1cc(-n2nc(C(F)(F)F)c(-c3c(F)cc(F)cc3F)c2N)ccc1-n1cncn1 [I-A-Q1-034],I-A-Q1-034: log P (HCOOH): 3.10
2,N#Cc1cc(-n2nc(C(F)(F)F)c(-c3cc(Cl)cc(Cl)c3)c2N)ccc1-n1nc[nH]c1=O [I-A-Q1-026],I-A-Q1-026: log P (HCOOH): 3.37
3,N#Cc1cc(-n2nc(C(F)(F)F)c(-c3cc(Cl)cc(Cl)c3)c2N)ccc1-n1nc(C(F)F)cc1C(F)F [I-A-Q1-080],I-A-Q1-080: log P (HCOOH): 4.64
4,CCNC(=O)NCc1ccc(-n2nc(C(F)(F)F)c(-c3cc(Cl)cc(Cl)c3)c2N)cc1Cl [I-A-Q3-024],I-A-Q3-024: log P (HCOOH): 3.85

# Same assay, conditions: HPLC, reversed-phase C18, mobile phase with formic acid; read-out: log P (HCOOH)
row,Compound,chromatographic logP
1,"Cc1cc(-n2nc(C(F)(F)F)c(-c3cc(Cl)cc(Cl)c3)c2N)ccc1C(=O)O [I-A-Q4-010, 4-[5-Amino-4-(3,5-dichlorophenyl)-3-trifluoromethylpyrazol-1-yl]-2-methylbenzoic acid]",4.04
2,"Cc1cc(-n2nc(C(F)(F)F)c(-c3cc(Cl)cc(Cl)c3)c2[S+](C)[O-])ccc1C(=O)NCc1ccccn1 (stereo not drawn) [I-A-Q2-063, 4-[4-(3,5-Dichlorophenyl)-5-methanesulphinyl-3-trifluoromethylpyrazol-1-yl]-2-methyl-N-pyridin-2-ylmethylbenzamide]",3.11
